What was measured:
[1] = test system: colorectal cancer patient-derived xenografts (PDX); experiment: In vivo therapeutic efficacy in CRC patient-derived xenograft (PDX) model; conditions: CRC PDX mice
Description: (§1) The therapeutic efficacy of was evaluated in PDX mice model. When the tumor volume reached about 100 mm3, mice were randomly assigned into four groups (six mice per group) and intravenously administered with DMSO, free PTX, Rev-PTX NPs and LPK-PTX NPs respectively at an equivalent dose of 0.8 mg/kg PTX every 3 days. Total mice body weights and tumor sizes were recorded every 3 days. At the end of the observation, tumors and major organs including heart, liver, spleen, lung, colon and kidney were isolated, […] and subjected to hematoxylin and eosin (H&E) and Ki-67 staining using standard protocols for histopathological analysis.

[2] = test system: HCT116 cells; experiment: Cell apoptosis, Annexin V-Alexa Fluor488/PI flow cytometry; assay type: cell-based, human; conditions: HCT116, PTX concentration 5 μg/ml, 48 h, representative result
Description: HCT116 cells were seeded in six-well plates at a density of 1 × 10^4 cells per well and incubated at 37°C until a confluence of 80%. The cells were treated with PTX, Rev-PTX NPs, LPK-PTX NPs at normalized PTX concentration of 5 μg/ml at 37°C for 48 h. Then the cells were trypsinzed, washed, and stained with Annexin V-Alexa Fluor488/PI according to manufacturer’s protocol (Life Technologies, United States). The cell apoptosis was monitored by flow cytometry (BD, CA, United States) and the apoptotic percentage of three independent experiments was analyzed.

[3] = Systemic toxicity in the PDX model (body weight, H&E of major organs); assay type: in vivo; conditions: PDX mice
Description: as §1

SMILES: CC(=O)O[C@H]1C(=O)[C@@]2(C)[C@H]([C@H](OC(=O)c3ccccc3)[C@]3(O)C[C@H](OC(=O)[C@H](O)[C@@H](NC(=O)c4ccccc4)c4ccccc4)C(C)=C1C3(C)C)[C@]1(OC(C)=O)CO[C@@H]1C[C@@H]2O [PTX, Paclitaxel]
- Ki-67 staining of tumor tissue [1]: numerous Ki-67-positive cells
- early plus late apoptosis (Q3 + Q2) [2]: 44.8%
- colon histology (HE) [3]: severe crypt destruction
- HE-stained sections of colon, lung and liver ([3]; 0.8 mg/kg PTX equivalent i.v. every 3 days): serious damages

From article PMC9554092, “Self-assembled peptide-paclitaxel nanoparticles for enhancing therapeutic efficacy in colorectal cancer” (Frontiers in Bioengineering and Biotechnology, 2022)
